“Also recorded” adds a separate entry of the source. Where two headings read alike, the source gives them in different places.
Columns and labels:
[1] = molecular target: T1, bovine parathyroid cell calcium receptor (BoPCaR 1) (Bos taurus, UniProt P35384); test: Cl- current in Xenopus oocytes expressing BoPCaR 1; assay type: cell-based; settings: 1 mM extracellular Ca2+
T1 construct: Xenopus oocytes were injected with BoPCaR 1, the 5.3 Kb cDNA encoding a bovine parathyroid cell calcium receptor; expressed in transfected cells; host or cells: Xenopus laevis oocytes injected with cRNA/cDNA of BoPCaR 1
T1 sequence (P35384 20-1085): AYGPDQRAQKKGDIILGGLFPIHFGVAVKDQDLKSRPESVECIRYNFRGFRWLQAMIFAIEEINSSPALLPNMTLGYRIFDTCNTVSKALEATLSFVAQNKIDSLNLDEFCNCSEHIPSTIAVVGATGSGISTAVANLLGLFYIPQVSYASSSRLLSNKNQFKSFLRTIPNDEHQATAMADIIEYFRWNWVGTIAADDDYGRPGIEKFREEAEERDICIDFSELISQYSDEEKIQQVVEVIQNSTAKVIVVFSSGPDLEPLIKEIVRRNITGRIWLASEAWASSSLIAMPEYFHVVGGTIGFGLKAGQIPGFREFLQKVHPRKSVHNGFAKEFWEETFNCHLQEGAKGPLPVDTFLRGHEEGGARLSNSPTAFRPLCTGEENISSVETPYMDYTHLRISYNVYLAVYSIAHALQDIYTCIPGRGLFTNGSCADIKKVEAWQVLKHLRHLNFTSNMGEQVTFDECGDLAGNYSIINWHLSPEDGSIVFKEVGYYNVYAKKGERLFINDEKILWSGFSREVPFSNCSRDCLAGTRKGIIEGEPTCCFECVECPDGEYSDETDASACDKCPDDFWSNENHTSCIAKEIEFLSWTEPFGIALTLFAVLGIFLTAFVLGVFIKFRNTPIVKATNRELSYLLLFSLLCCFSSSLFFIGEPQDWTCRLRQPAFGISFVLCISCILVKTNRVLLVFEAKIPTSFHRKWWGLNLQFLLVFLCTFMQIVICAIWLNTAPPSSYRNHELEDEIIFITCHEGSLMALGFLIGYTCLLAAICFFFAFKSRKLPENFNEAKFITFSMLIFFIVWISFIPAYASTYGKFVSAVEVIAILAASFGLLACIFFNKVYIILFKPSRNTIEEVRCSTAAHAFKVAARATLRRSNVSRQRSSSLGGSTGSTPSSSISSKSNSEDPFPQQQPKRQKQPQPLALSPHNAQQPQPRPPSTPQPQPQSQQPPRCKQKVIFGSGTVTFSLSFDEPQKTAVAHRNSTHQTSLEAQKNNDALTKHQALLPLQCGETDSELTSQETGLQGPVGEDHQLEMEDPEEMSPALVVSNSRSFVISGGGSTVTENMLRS
Experimental: (§1) Following incubation, an oocyte was placed into a 100-μl plastic chamber and superfused with MBS at a flow rate of 0.5 ml/min using a peristaltic pump. Test molecules or inorganic polycations were added by rapidly moving the tubing into different buffers. Recording and current-passing electrodes were constructed from thin-wall capillary tubing pulled to a resistance of 1-3 Mohms and filled with 3M KCl. […] Currents were recorded directly onto a strip chart recorder.
The techniques used to clone the parathyroid calcium receptor are briefly described in this example; a more complete description of the techniques is provided in preceding sections, which describe techniques which may be used to clone additional forms of the Ca^2+ -receptor from other cell types. Poly(A^+)-enriched mRNA was initially prepared from bovine parathyroid glands by extracting with guanidinium thiocyanate, centrifugation through CsCl and oligo(dT) cellulose chromatography. […] No such currents were elicited in control eggs injected with water.
These responses are mediated by the following series of biochemical events:
Xenopus oocytes were injected with BoPCaR 1, the 5.3 Kb cDNA encoding a bovine parathyroid cell calcium receptor as described in Example 25. After two to three days, Cl^- currents were examined in the oocytes using a two-electrode voltage clamp.
Xenopus oocytes were injected with BoPCaR 1 as described in Example 25. After two to three days, Cl^- currents were examined in the oocytes using two electrode voltage clamp.

[2] = test system: osteoclast calcium receptor; test: increase in [Ca2+]i in indo-1-loaded rat osteoclasts; assay type: cell-based
[3] = molecular target: T2, C-cell calcium receptor (Rattus norvegicus, UniProt P48442); assay type: cell-based; set-up: Neoplastic C-cells derived from a rat medullary thyroid carcinoma (rMTC 6-23); host or cells: rMTC 6-23; settings: rMTC 6-23 cells, fura-2; inactive = no increase in cytosolic Ca2+ at 1-5 mM
T2 sequence (P48442 20-1079): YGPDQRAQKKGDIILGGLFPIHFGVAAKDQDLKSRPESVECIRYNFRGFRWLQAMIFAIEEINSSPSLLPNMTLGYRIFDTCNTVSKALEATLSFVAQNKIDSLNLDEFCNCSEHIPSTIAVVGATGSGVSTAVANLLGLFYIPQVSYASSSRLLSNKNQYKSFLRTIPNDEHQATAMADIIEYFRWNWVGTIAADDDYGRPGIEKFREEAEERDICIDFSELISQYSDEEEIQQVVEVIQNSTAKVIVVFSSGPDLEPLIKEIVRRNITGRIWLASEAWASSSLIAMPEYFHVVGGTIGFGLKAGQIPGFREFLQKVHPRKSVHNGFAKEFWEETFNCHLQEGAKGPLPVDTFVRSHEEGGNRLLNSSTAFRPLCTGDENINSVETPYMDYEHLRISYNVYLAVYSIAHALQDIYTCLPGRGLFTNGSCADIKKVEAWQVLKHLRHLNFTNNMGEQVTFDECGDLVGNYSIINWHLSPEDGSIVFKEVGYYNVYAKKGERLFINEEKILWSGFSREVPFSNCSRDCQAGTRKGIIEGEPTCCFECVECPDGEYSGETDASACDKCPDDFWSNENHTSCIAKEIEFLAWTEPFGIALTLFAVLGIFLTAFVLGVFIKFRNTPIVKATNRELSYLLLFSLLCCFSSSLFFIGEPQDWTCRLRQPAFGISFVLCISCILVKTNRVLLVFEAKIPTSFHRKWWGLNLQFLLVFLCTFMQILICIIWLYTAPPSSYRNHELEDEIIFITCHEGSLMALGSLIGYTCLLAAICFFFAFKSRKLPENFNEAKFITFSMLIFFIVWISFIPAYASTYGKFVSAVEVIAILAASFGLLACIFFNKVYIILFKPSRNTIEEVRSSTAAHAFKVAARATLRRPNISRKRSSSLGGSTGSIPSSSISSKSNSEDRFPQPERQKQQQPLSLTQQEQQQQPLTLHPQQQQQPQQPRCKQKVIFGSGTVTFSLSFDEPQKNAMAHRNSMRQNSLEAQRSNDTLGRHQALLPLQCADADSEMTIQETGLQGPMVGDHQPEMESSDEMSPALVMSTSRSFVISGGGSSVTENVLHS
Description: To assess the effects of molecular polycations on C-cells, a neoplastic cell line, derived from a rat medullary thyroid carcinoma (rMTC 6-23 cells) was used.

[4] = net positive charge; assay type: physicochemical
[5] = test system: increases in [Ca2+]i elicited by extracellular Ca2+ in bovine parathyroid cells; test: block of extracellular Ca2+-induced [Ca2+]i increase / Ca2+ influx in bovine parathyroid cells; assay type: cell-based; settings: for effect of pretreatment on increases in [Ca2+]i elicited by extracellular Ca2+ / fall in [Ca2+]i: 100 to 1000 μM; for fall in [Ca2+]i: buffer containing 2 mM CaCl2
Experimental: (§2) The cells were then pelleted, resuspended in the same buffer, but lacking the ester, and incubated a further 15 minutes at 37° C. The cells were subsequently washed twice with PCB containing 0.5 mM CaCl2 and 0.5% BSA and maintained at room temperature (about 20° C.). Immediately before use, the cells were diluted five-fold with prewarmed 0.5 mM CaCl2 -PCB to obtain a final BSA concentration of 0.1%. The concentration of cells in the cuvette used for fluorescence recording was 1-2×10^6 /ml.
(§3) The fluorescence of indicator-loaded cells was measured at 37° C. in a spectrofluorimeter (Biomedical Instrumentation Group, University of Pennsylvania, Philadelphia, Pa.) equipped with a thermostated cuvette holder and magnetic stirrer using excitation and emission wavelengths of 340 and 510 nm, respectively. […] Leakage of dye is dependent on temperature and most occurs within the first 2 minutes after warming the cells in the cuvette. Dye leakage increases only very slowly thereafter. To correct the calibration for dye leakage, cells were placed in the cuvette and stirred at 37° C. for 2-3 minutes. The cell suspension was then removed, the cells pelleted, and the supernatant returned to a clean cuvette. […] This estimate was subtracted from the apparent Fmin.

[6] = test system: parathyroid cell calcium receptor; assay type: cell-based; settings: for EC50: screened as in Example 1
Experimental: For example, bovine parathyroid cells loaded with fura-2 are initially suspended in buffer containing 0.5 mM CaCl2. A test substance is added to the cuvette in a small volume (5-15 μl) and changes in the fluorescence signal are measured. Cumulative increases in the concentration of the test substance are made in the cuvette until some predetermined concentration is achieved or no further changes in fluorescence are noted.
This section describes procedures used to obtain and treat parathyroid cells from calves and humans. […] Human parathyroid glands, were obtained from patients undergoing surgical removal of parathyroid tissue for primary or uremic hyperparathyroidism (uremic HPT), and were treated similarly to bovine tissue.
Glands were trimmed of excess fat and connective tissue and then minced with fine scissors into cubes approximately 2-3 mm on a side. Dissociated parathyroid cells were prepared by collagenase digestion and then purified by centrifugation in Percoll buffer. The resultant parathyroid cell preparation was essentially devoid of red blood cells, adipocytes, and capillary tissue as assessed by phase contrast microscopy and Sudan black B staining. Dissociated and purified parathyroid cells were present as small clusters containing 5 to 20 cells.
as §2, §3
Dissociated bovine parathyroid cells were purified on gradients of Percoll and cultured overnight in serum-free medium.

[7] = molecular target: T3, calcium receptor expressed from human parathyroid cell mRNA in Xenopus oocytes (Homo sapiens, UniProt P41180); test: response of Xenopus oocytes injected with human parathyroid mRNA; assay type: cell-based; settings: human parathyroid mRNA
T3 sequence (P41180 20-1078): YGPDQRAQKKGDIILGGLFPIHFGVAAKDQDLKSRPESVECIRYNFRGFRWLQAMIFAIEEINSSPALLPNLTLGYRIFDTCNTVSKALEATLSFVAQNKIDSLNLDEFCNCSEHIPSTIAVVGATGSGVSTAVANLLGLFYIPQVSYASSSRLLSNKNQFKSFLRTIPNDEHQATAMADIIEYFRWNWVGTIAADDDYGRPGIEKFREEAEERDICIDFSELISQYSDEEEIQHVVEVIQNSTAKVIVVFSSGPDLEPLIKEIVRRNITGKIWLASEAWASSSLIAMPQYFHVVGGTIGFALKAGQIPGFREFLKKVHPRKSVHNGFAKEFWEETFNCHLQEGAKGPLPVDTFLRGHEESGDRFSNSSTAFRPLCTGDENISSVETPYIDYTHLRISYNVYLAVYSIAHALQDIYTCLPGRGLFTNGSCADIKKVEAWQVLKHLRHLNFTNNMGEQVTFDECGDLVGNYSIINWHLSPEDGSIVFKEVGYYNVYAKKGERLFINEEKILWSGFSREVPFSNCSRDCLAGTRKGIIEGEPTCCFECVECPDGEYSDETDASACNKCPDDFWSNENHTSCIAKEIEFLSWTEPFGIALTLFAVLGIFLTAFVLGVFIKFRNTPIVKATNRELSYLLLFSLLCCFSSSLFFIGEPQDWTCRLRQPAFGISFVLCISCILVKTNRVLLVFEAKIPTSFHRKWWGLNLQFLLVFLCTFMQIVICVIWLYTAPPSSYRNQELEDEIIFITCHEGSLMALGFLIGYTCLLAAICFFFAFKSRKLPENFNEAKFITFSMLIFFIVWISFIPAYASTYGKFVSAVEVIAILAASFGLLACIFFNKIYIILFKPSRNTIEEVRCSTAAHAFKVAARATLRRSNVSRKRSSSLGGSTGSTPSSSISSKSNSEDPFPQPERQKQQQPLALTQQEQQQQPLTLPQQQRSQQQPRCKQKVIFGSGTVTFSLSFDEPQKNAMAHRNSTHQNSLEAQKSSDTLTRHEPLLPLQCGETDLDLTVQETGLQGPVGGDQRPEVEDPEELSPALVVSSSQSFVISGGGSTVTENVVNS
Experimental: Oocytes were injected with poly(A)^+ -enriched mRNA from human parathyroid tissue (hyperplastic glands from a case of secondary HPT).
Glass capillary tubes (1 mm diameter) were pulled to a fine tip and manually broken to achieve a tip diameter of about 15 μmeters. A droplet of mRNA (1 ng/nl in diethylpyrocarbonate (DEPC)-treated water) was placed onto […]® and drawn into the capillary tube by suction. The capillary tube was then connected to a picospritzer (WPI Instruments) and the volume of the air-pulsed droplets adjusted to deliver 50 ng of mRNA (typically 50 nl). A 35-mm culture dish with a patch of nylon stocking fixed to the bottom was used to secure the oocytes during injection of mRNA into the vegetal pole. The injected oocytes were placed into a 35-mm culture dish containing MBS, 100 μg/ml penicillin and 100 μg/ml streptomycin and incubated at 18° C. for 3 days.
as §1
Using this screen allows one to test for an action directly on the calcium receptor. Oocytes expressing the calcium receptor also responded to several molecules active on intact parathyroid cells when screened as follows. […] This offers rather compelling evidence showing that these molecules act on the calcium receptor or on some other protein intimately associated with its function.

In the case of `NCCCNCCCCNCCCNCCCN(O)CCCNC(=O)Cc1c[nH]c2ccccc12` [NPS 017], the “Cl- current” value [1] is reported as “oscillatory increases” and the “EC50 OSTEOCLAST (Table 6)” value ([2]; rat osteoclasts, indo-1, inactive = no increase in cytosolic Ca2+ at 1-5 mM) is reported as “inactive”.

With `NCCCNCCCCNCCCNCCCN(O)CCCNC(=O)Cc1c[nH]c2cccc(O)c12` [NPS 015] the “EC50 C-CELL (Table 6)” value [3] was “inactive”.

For `NCCCCCCCCCCCCN` [1,12-diaminododecane (DADD), 1,12-diaminododecane], the “Net (+) Charge (Table 1)” value [4] was “+2”, the “effect of pretreatment on increases in [Ca2+]i elicited by extracellular Ca2+” value [5] was “depresses steady-state, but not transient increases” and the “fall in [Ca2+]i” value [5] was “prompt fall”.

With `C1CNCCNCCNCCNCCNCCN1` [Hexacyclen, 1,4,7,10,13,16-hexaaza-cyclooctadecane] the “Net (+) Charge (Table 1)” value [4] was “+6”, the “relative potency (fold)” value ([6]; hexacyclen vs NPS 383) was 7 fold and the “relative potency (fold)” value ([6]; hexacyclen vs […]) was 25 fold. For the same compound, the EC50 ([6]; parathyroid cells, read-out: EC50 (Table 1)) was 20 µM and the “concentration effective in oocytes” value [7] was 135 µM.

For `CCN(CC)CCCCCCCCOC(=O)c1cc(OC)c(OC)c(OC)c1` [TMB-8], the “potentiation of mobilization of intracellular Ca2+ elicited by extracellular divalent cations” value ([6]; 100 μM) was “potentiated the mobilization of intracellular; also recorded: potentiated transient increases”, the “change in [Ca2+]i” value ([6]; 100 μM, 0.5 mM extracellular Ca2+) was “evoked no change” and the “increase in [Ca2+]i at intermediate extracellular Ca2+” value ([6]; 100 μM, 1-[…] extracellular Ca2+) was “small, but robust increase”. For the same compound, the “block of influx of extracellular Ca2+” value ([5]; 100 μM) was “blocked the influx of extracellular”.

With `NCCCCNCCCN` [Spermidine, spermidine] the “Net (+) Charge (Table 1)” value [4] was “+3”, the EC50 ([6]; read-out: EC50 (Table 3)) was 2000 µM and the “increase in [Ca2+]i in osteoclasts, overall” value [2] was “none of these caused any large increase”.

With `CC(Cc1ccccc1)NCCC(c1ccccc1)c1ccccc1` (stereo not drawn) [Prenylamine] the “increase in [Ca2+]i (words)” value ([2]; rat osteoclasts) was “mobilization”.

For `COc1ccc(CC(=O)NCCCCCCCCCCCCN)cc1OC` [NPS 384], the “increase in [Ca2+]i (words)” value ([6]; 300 μM) was “did not evoke an increase”, the “block of influx of extracellular Ca2+” value ([5]; 300 μM) was “blocked influx of extracellular” and the “effect of pretreatment on increases in [Ca2+]i elicited by extracellular Ca2+” value [5] was “depresses steady-state, but not transient increases”. For the same compound, the “fall in [Ca2+]i” value [5] was “prompt fall”.

With `NCCCCCCCCCCCCNC(=O)Cc1ccc(O)cc1O` [NPS 021] the “change in [Ca2+]i by compound alone” value ([6]; 0.5 mM Ca2+) was “caused no change; also recorded: does not by itself cause any change”, the “effect on increase in [Ca2+]i elicited by extracellular Ca2+” value ([5]; 200 μM, [Ca2+] 0.5 to 2 mM) was “inhibited the increase” and the IC50 ([5]; Bos taurus, fura-2 loaded bovine parathyroid cells, read-out: IC50 for blocking increase in [Ca2+]i elicited by extracellular Ca2+) was about 200 µM. The “increase in [Ca2+]i evoked by extracellular Ca2+” value ([5]; around 500 μM) was “abolished”.
